From patent US11858959B2, “Glycyrrhetinic acid derivatives for use in treating hyperkalemia” (ARDELYX, INC., priority 2019, dated 2024)

Biological target: HSD2 (Homo sapiens (Human), UniProt P80365)
Assay: HSD2 activity: cortisol level (HTRF) in human descending colon organoid-derived monolayer cultures
Protocol: Human descending colon epithelial stem cells were cultured as 3D organoids in accordance with Sato et al Gastroenterology. […] Cultures were differentiated using SBM containing ENRA and 30 nM aldosterone on day 3, and cultures were used for assay on day 6 or 7. Compounds were diluted in DMSO and serial dilutions prepared by titrating in DMSO. Compounds were then diluted into DMEM/F12. Transwell plates containing descending colon cultures were washed twice with DMEM/F12 and compound was added to the apical compartment. Cells were incubated with test compound for 30 minutes at 37° C., 5% CO2 to equilibrate across the cell membrane. A second compound plate was prepared in which the serially diluted compounds in DMSO were diluted into DMEM/F12 containing 40 nM cortisol. Following the 30 minute pre-incubation step, the apical media was aspirated and compounds diluted in DMEM/F12 with 40 nM cortisol were added to the apical side of the transwell. The plate was then incubated for four hours at 37° C., 5% CO2. Cortisol levels were measured using a cortisol HTRF assay kit as described by the manufacturer (Cisbio). Concentration-response curves were then plotted and IC50 (and pIC50) values were determined using least squares non-linear regression.
Inhibition of HSD2 activity as measured by the inhibition of the conversion of cortisone to cortisol.

Chain of HSD2 (P80365 whole entry): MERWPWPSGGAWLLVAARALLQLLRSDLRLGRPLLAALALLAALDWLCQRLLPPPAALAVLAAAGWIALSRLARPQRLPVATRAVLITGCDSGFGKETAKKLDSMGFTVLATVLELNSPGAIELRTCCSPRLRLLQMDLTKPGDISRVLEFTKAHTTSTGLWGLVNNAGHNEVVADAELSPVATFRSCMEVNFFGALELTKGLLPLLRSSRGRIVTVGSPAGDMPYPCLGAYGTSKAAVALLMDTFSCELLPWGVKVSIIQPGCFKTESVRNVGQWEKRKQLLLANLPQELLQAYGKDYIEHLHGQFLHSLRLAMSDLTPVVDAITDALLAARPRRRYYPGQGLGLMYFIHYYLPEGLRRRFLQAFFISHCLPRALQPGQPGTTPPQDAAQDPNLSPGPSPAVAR

Compound | pIC50 (HSD2 inhibition in human descending colon cultures, 30 min pre-incubation, then 40 nM cortisol for four hours, cortisol HTRF) | IC50 [µM]
2-(3-((1-PEG5K-1H-1,2,3-triazol-4-yl)methoxy)-4-nitrobenzyl) 9-((5-methyl-2-oxo-1,3-dioxol-4-yl)methyl)(2S,4aS,6aS,6bR,8aR,9S,10S,12aS,12bR,14bR)-10-((2,5,8,11-tetraoxatetradecan-14-oyl)oxy)-2,4a,6a,6b,9,12a-hexamethyl-13-oxo-1,2,3,4,4a,5,6,6a,6b,7,8,8a,9,10,11,12,12a,12b,13,14b-icosahydropicene-2,9-dicarboxylate [Compound 605-2] | 6.9 | –
C[C@]1(C(=O)O)CC[C@]2(C)CC[C@]3(C)C(=CC(=O)[C@@H]4[C@@]5(C)CC[C@H](OC(=O)NCCN6CCOCC6)[C@@](C)(C(=O)O)[C@@H]5CC[C@]43C)[C@@H]2C1 [(2S,4aS,6aS,6bR,8aR,9S,10S,12aS,12bR,14bR)-2,4a,6a,6b,9,12a-hexamethyl-10-({[2-(morpholin-4-yl)ethyl]carbamoyl}oxy)-13-oxo-1,2,3,4,4a,5,6,6a,6b,7,8,8a,9,10,11,12,12a,12b,13,14b-icosahydropicene-2,9-dicarboxylic acid] | – | > 10
CCC(=O)O[C@H]1CC[C@]2(C)[C@H]3C(=O)C=C4[C@@H]5C[C@@](C)(C(=O)O)CC[C@]5(C)CC[C@@]4(C)[C@]3(C)CC[C@H]2[C@]1(C)N [(2S,4aS,6aS,6bR,8aR,9S,10S,12aS,12bR,14bR)-9-amino-2,4a,6a,6b,9,12a-hexamethyl-13-oxo-10-(propanoyloxy)-1,2,3,4,4a,5,6,6a,6b,7,8,8a,9,10,11,12,12a,12b,13,14b-icosahydropicene-2-carboxylic acid] | – | 0.398
C[C@]1(C(=O)O)CC[C@]2(C)CC[C@]3(C)C(=CC(=O)[C@@H]4[C@@]5(C)CC[C@H](O)[C@@](C)(N)[C@@H]5CC[C@]43C)[C@@H]2C1 [(2S,4aS,6aS,6bR,8aR,9S,10S,12aS,12bR,14bR)-9-amino-10-hydroxy-2,4a,6a,6b,9,12a-hexamethyl-13-oxo-1,2,3,4,4a,5,6,6a,6b,7,8,8a,9,10,11,12,12a,12b,13,14b-icosahydropicene-2-carboxylic acid] | – | > 10
C[C@]1(C(=O)O)CC[C@]2(C)CC[C@]3(C)C(=CC(=O)[C@@H]4[C@@]5(C)CC[C@H](OC(=O)CS(C)(=O)=O)[C@@](C)(C(=O)O)[C@@H]5CC[C@]43C)[C@@H]2C1 [(2S,4aS,6aS,6bR,8aR,9S,10S,12aS,12bR,14bR)-10-[(2-methanesulfonylacetyl)oxy]-2,4a,6a,6b,9,12a-hexamethyl-13-oxo-1,2,3,4,4a,5,6,6a,6b,7,8,8a,9,10,11,12,12a,12b,13,14b-icosahydropicene-2,9-dicarboxylic acid] | – | > 10
COCC(=O)O[C@H]1CC[C@@]2(C)[C@@H](CC[C@]3(C)[C@@H]2C(=O)C=C2[C@@H]4C[C@@](C)(C(=O)O)CC[C@]4(C)CC[C@]23C)[C@]1(C)C(=O)O [(2S,4aS,6aS,6bR,8aR,9S,10S,12aS,12bR,14bR)-10-[(2-methoxyacetyl)oxy]-2,4a,6a,6b,9,12a-hexamethyl-13-oxo-1,2,3,4,4a,5,6,6a,6b,7,8,8a,9,10,11,12,12a,12b,13,14b-icosahydropicene-2,9-dicarboxylic acid] | – | > 10
COC(=O)N[C@H]1CC[C@@]2(C)[C@@H](CC[C@]3(C)[C@@H]2C(=O)C=C2[C@@H]4C[C@@](C)(C(=O)O)CC[C@]4(C)CC[C@]23C)[C@]1(C)C(=O)O [(2S,4aS,6aS,6bR,8aR,9S,10S,12aS,12bR,14bR)-10-[(methoxycarbonyl)amino]-2,4a,6a,6b,9,12a-hexamethyl-13-oxo-1,2,3,4,4a,5,6,6a,6b,7,8,8a,9,10,11,12,12a,12b,13,14b-icosahydropicene-2,9-dicarboxylic acid] | – | > 10
CN(C)CC(=O)O[C@H]1CC[C@@]2(C)[C@@H](CC[C@]3(C)[C@@H]2C(=O)C=C2[C@@H]4C[C@@](C)(C(=O)O)CC[C@]4(C)CC[C@]23C)[C@]1(C)C(=O)O [(2S,4aS,6aS,6bR,8aR,9S,10S,12aS,12bR,14bR)-10-{[2-(dimethylamino)acetyl]oxy}-2,4a,6a,6b,9,12a-hexamethyl-13-oxo-1,2,3,4,4a,5,6,6a,6b,7,8,8a,9,10,11,12,12a,12b,13,14b-icosahydropicene-2,9-dicarboxylic acid] | – | > 10
C[C@]1(C(=O)O)CC[C@]2(C)CC[C@]3(C)C(=CC(=O)[C@@H]4[C@@]5(C)CC[C@H](O)[C@@](C)(COCC(=O)O)C5CC[C@]43C)[C@@H]2C1 (stereo partly drawn) [(2S,4aS,6aS,6bR,9R,10S,12aS,12bR,14bR)-9-[(carboxymethoxy)methyl]-10-hydroxy-2,4a,6a,6b,9,12a-hexamethyl-13-oxo-1,2,3,4,4a,5,6,6a,6b,7,8,8a,9,10,11,12,12a,12b,13,14b-icosahydropicene-2-carboxylic acid] | – | > 10
COCO[C@H]1CC[C@@]2(C)[C@@H](CC[C@]3(C)[C@@H]2C(=O)C=C2[C@@H]4C[C@@](C)(C(=O)O)CC[C@]4(C)CC[C@]23C)[C@]1(C)C(=O)OCc1oc(=O)oc1C(C)C [Compound 258-2, (2S,4aS,6aS,6bR,8aR,9S,10S,12aS,12bR,14bR)-9-(((5-Isopropyl-2-oxo-1,3-dioxol-4-yl)methoxy)carbonyl)-10-(methoxymethoxy)-2,4a,6a,6b,9,12a-hexamethyl-13-oxo-1,2,3,4,4a,5,6,6a,6b,7,8,8a,9,10,11,12,12a,12b,13,14b-icosahydropicene-2-carboxylic Acid] | – | 0.126
CCC(=O)O[C@H]1CC[C@@]2(C)[C@@H](CC[C@]3(C)[C@@H]2C(=O)C=C2[C@@H]4C[C@@](C)(C(=O)O)CC[C@]4(C)CC[C@]23C)[C@]1(C)NC(=O)OCc1oc(=O)oc1CC [Compound 318-1, (2S,4aS,6aS,6bR,8aR,9S,10S,12aS,12bR,14bR)-9-((((5-ethyl-2-oxo-1,3-dioxol-4-yl)methoxy)carbonyl)amino)-2,4a,6a,6b,9,12a-hexamethyl-13-oxo-10-(propionyloxy)-1,2,3,4,4a,5,6,6a,6b,7,8,8a,9,10,11,12,12a,12b,13,14b-icosahydropicene-2-carboxylic Acid] | – | 0.0355
